Laboratory results: patent US20200031866A1, “PEPTIDE INHIBITORS OF SODIUM CHANNELS” (SPYRYX BIOSCIENCES, INC., priority 2016, published 2020)
Square brackets hold non-standard residues; d marks the D form. Peptide text beside a SMILES is read from it.

System: tracheal mucus velocity (TMV) in sheep
Assay: CFTRinh-172-induced slowing of tracheal mucus velocity (TMV) in sheep
Type: in vivo
Conditions: for average TMV response between 5-12h: mean±se, 3 sheep/group, saline 50±0.5%
Description: All procedures used were approved by the Mount Sinai Medical Center Animal Research Committee. The sheep were conscious and intubated for these studies. All instrumentation was performed under local anesthesia. After topical anesthesia of the nasal passages with 2% lidocaine solution, the sheep were nasally intubated, with an endotracheal tube […] in diameter (Mallinckrodt Med Inc., St. Louis, Mo.) shortened by 6 cm. The cuff of the tube was placed just below the vocal cords (verified by fluoroscopy) to allow for maximal exposure of the tracheal surface area. The inspired air was warmed and humidified using a Bennett Humidifier (Puritan-Bennett, Lenexa, Kans.). To minimize possible impairment of TMV caused by the inflated cuff, the endotracheal tube cuff remained deflated throughout the study except for the period of drug delivery.
TMV was measured in vivo by a roentgenographic technique. Between 8 and 10 radiopaque Teflon/bismuth trioxide disks, 1-mm diameter, 0.8-mm thick and 1.5-2 mg in weight, were insufflated onto the trachea. A modified suction catheter connected to a source of continuous compressed air at a flow of 3-4 L/min was used to introduce the particles via the endotracheal tube. The catheter remained within the endotracheal tube only during particle delivery, so that no contact with the tracheal surface is made. The cephalad-axial velocities of the individual disks were recorded on videotape from a portable image intensifier unit. Individual disk velocities were calculated by measuring the distance traveled by each disk during a 1-min observation period. For each run, the mean value of all individual disk velocities was calculated. A collar containing radiopaque reference markers of known length was worn by the sheep, and used as a standard to correct for magnification effects inherent in the fluoroscopy unit.
Aerosols were generated using an Airlife medication nebulizer. To control aerosol delivery a dosimetry system activated by a piston respirator (Harvard Apparatus Respiratory Pump, Holliston, Mass.) was used. The nebulizer was connected to a T-piece with one end attached to the respiratory pump and the other to the animal's tracheal tube. Nebulized aerosols were delivered directly into the trachea only during inspiration at a frequency of 20 breaths/min and at a tidal volume of 500 mL.
Ten (10) mg of CFTRinh-172 was dissolved in 0.3 mL of DMSO. The solution was vortexed and then 2.7 mL of ethanol was added bringing the final nebulized solution of CFTRinh to 10 mg/3 mL. […]
After a 10 minute period on the humidifier, a baseline TMV was obtained Immediately following the baseline, the sheep were challenged with an aerosol of 10 mg of CFTRinh. TMV was measured hourly for 4h. […] TMV was then measured from 5-12h following treatment. […]

## CC[C@H](C)[C@H](NC(=O)[C@@H]1CCCN1C(=O)[C@H](CC(C)C)NC(=O)[C@@H](C)NC(=O)[C@@H](C)N)C(=O)N1CCC[C@H]1C(=O)N[C@@H](CC(C)C)C(=O)N[C@@H](CC(=O)O)C(=O)N[C@@H](CCC(N)=O)C(=O)N[C@H](C(=O)N[C@H](C)C(=O)N[C@H](C)C(N)=O)[C@@H](C)O [SEQ ID NO:128, aaLPIPLDQTaa] (H-[dA][dA]LPIPLDQT[dA][dA]-NH2)
1 mg/kg nebulized 4 h after 10 mg CFTRinh
  average TMV response between 5-12h: 73.7±0.7%
2 mg/kg nebulized 4 h after 10 mg CFTRinh
  average TMV response between 5-12h: 88.4±0.6%
4 mg/kg nebulized 4 h after 10 mg CFTRinh
  average TMV response between 5-12h: 103.0±0.6%
Reversal dose dependent, FIGS. 8A-8C
  reversal of CFTRinh-induced slowing of TMV: can reverse CFTRinh-induced slowing of TMV
